Results from US20150133426A1, “SUBSTITUTED PYRROLOPYRIMIDINES” (BAYER PHARMA AKTIENGESELLSCHAFT, priority 2012, published 2015).

These compounds were tested against T1, human full-length MKNK1 (Homo sapiens, UniProt Q9BUB5, T385D) (assay: MKNK1 kinase high ATP assay (TR-FRET)). Conditions: high ATP (2 mM), 15 min preincubation with enzyme, GST-MKNK1 (T344D).
T1 construct: purchased Carna Biosciences 02-145; host or cells: insect cells, baculovirus expression system
Format: biochemical
Outline: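 GST-tagged full-length human MKNK1 (aa 1-424, T344D), baculovirus-expressed, preincubated 15 min with compound, then reacted 30 min at 22 °C with 2 mM ATP and 0.06 µM biotinylated peptide (final).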

T1 sequence (Q9BUB5 1-424 isoform Q9BUB5-2 T344D): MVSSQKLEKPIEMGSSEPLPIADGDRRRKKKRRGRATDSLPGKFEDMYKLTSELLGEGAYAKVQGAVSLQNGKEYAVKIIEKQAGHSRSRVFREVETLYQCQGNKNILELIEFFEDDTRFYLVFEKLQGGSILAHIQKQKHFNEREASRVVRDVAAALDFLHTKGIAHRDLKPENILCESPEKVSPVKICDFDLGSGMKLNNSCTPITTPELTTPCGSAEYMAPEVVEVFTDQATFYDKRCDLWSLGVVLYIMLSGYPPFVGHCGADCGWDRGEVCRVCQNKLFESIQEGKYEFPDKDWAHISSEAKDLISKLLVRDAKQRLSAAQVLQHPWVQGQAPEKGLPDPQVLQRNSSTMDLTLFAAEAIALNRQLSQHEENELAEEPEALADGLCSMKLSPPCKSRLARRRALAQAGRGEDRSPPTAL

SMILES	IC50
CS(=O)(=O)CCCNC(=O)C1CCc2[nH]c3ncnc(Nc4ccc(OC(F)F)cc4)c3c2C1 (racemic) [Example 31, (RS)-4-{[4-(Difluoromethoxy)phenyl]amino}-N-[3-(methylsulfonyl)propyl]-6,7,8,9-tetrahydro-5H-pyrimido[4,5-b]indole-6-carboxamide]	2750 nM
COCC1(OC)CCc2[nH]c3ncnc(Nc4cc(Cl)ccc4OC)c3c2C1 (racemic) [Example 133]	205 nM
CC(C)Oc1cc2[nH]ncc2cc1Nc1ncnc2[nH]c3c(c12)CCCC3 [Example 126]	5 nM
CCNC(=O)C1CCc2[nH]c3ncnc(Nc4cc(Cl)c(Cl)cc4OC)c3c2C1 (racemic) [Example 21, (RS)-4-[(4,5-Dichloro-2-methoxyphenyl)amino]-N-ethyl-6,7,8,9-tetrahydro-5H-pyrimido[4,5-b]indole-6-carboxamide]	12 nM
Cn1c2c(c3c(Nc4ccc5[nH]ncc5c4)ncnc31)CC(C(=O)NCCCS(C)(=O)=O)CC2 (racemic) [Example 26, (RS)-4-(1H-Indazol-5-ylamino)-9-methyl-N-[3-(methylsulfonyl)propyl]-6,7,8,9-tetrahydro-5H-pyrimido[4,5-b]indole-6-carboxamide]	1740 nM
CC(C)Oc1ccc(Cl)cc1Nc1ncnc2[nH]c3c(c12)CC(F)(F)CC3 [Example 143]	407 nM
CS(=O)(=O)CCCNC(=O)C1CCc2[nH]c3ncnc(Oc4ccc5[nH]ncc5c4)c3c2C1 (racemic) [Example 56, (RS)-4-(1H-Indazol-5-yloxy)-N-[3-(methylsulfonyl)propyl]-6,7,8,9-tetrahydro-5H-pyrimido[4,5-b]indole-6-carboxamide]	226 nM
CC(C)Oc1ccc(Br)cc1Nc1ncnc2[nH]c3c(c12)CCCC3 [Example 127]	6270 nM
CS(=O)(=O)CCCNC(=O)C1CCc2[nH]c3ncnc(Nc4ccc(C(=O)N5CCCC5)cc4)c3c2C1 (racemic) [Example 38, (RS)—N-[3-(Methylsulfonyl)propyl]-4-{[4-(pyrrolidin-1-ylcarbonyl)phenyl]amino}-6,7,8,9-tetrahydro-5H-pyrimido[4,5-b]indole-6-carboxamide]	10600 nM

Results, then the compound that gave them:

IC50	SMILES
≥ 20000 nM	Cc1ccc(Nc2ncnc3[nH]c4c(c23)CC(C(=O)NCCCS(C)(=O)=O)CC4)c(OC(F)F)c1 (racemic) [Example 156, (RS)-4-{[2-(Difluoromethoxy)-4-methylphenyl]amino}-N-[3-(methylsulfonyl)propyl]-6,7,8,9-tetrahydro-5H-pyrimido[4,5-b]indole-6-carboxamide]
803 nM	CS(=O)(=O)CCCNC(=O)C1CCc2[nH]c3ncnc(N4CCc5ccccc54)c3c2C1 (racemic) [Example 168, (RS)-4-(2,3-Dihydro-1H-indol-1-yl)-N-[3-(methylsulfonyl)propyl]-6,7,8,9-tetrahydro-5H-pyrimido[4,5-b]indole-6-carboxamide]
≥ 20000 nM	O=C(NCc1cccc(C(F)(F)F)c1)C1CCc2[nH]c3ncnc(N4CCc5ccccc54)c3c2C1 (racemic) [Example 210, (RS)-4-(2,3-Dihydro-1H-indol-1-yl)-N-[3-(trifluoromethyl)benzyl]-6,7,8,9-tetrahydro-5H-pyrimido[4,5-b]indole-6-carboxamide]
25 nM	CN1CCN(C(=O)C2CCc3[nH]c4ncnc(Nc5ccc6[nH]c(=O)sc6c5)c4c3C2)CC1 (racemic) [Example 222, (RS)-6-({6-[(4-Methylpiperazin-1-yl)carbonyl]-6,7,8,9-tetrahydro-5H-pyrimido[4,5-b]indol-4-yl}amino)-1,3-benzothiazol-2(3H)-one]
181 nM	CN1CCN(C(=O)C2CCc3[nH]c4ncnc(Nc5ccccc5OC5CCCC5)c4c3C2)CC1 (racemic) [Example 192, (RS)-(4-{[2-(Cyclopentyloxy)phenyl]amino}-6,7,8,9-tetrahydro-5H-pyrimido[4,5-b]indol-6-yl)(4-methylpiperazin-1-yl)methanone]
